The text below walks through data of publication PMC10246557, “Kinetic and inhibition studies on human Jumonji-C (JmjC) domain-containing protein 5” (RSC Chemical Biology, 2023).

For one experiment, the system named is JMJD5. The note with it: cited from earlier work; for K m: 10.0 μM JMJD5, 50 mM HEPES pH 7.5, read-out: Km JMJD5 (MALDI-TOF MS assay).
In experiment [1] the target is T1, human JMJD5 (Homo sapiens, UniProt Q8N371).
T1 construct: made in house; host or cells: Escherichia coli BL21(DE3)
T1 sequence (Q8N371 whole entry): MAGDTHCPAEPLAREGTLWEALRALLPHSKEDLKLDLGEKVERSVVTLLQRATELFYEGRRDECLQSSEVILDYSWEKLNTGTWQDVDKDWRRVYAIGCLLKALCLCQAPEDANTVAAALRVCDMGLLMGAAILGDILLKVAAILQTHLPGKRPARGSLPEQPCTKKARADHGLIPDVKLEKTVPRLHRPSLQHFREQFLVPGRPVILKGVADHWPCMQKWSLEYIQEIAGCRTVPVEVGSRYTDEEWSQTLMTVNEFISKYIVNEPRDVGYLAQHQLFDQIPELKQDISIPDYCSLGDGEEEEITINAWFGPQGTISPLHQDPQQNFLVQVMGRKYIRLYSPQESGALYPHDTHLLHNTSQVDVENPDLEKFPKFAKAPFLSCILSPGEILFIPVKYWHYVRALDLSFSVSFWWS
The experiment in a line: SPE-MS JMJD5 turnover and kinetic assay (RPS6_128–148 hydroxylation). In kind it is biochemical. The note with it: for JMJD5 (%): RPS6_128–148 hydroxylation with the compound as cosubstrate: absence of 2OG, JMJD5 0.15 μM, 2OG derivative 400 μM, Fe(II) 20 μM, RPS6_128–148 2.0 μM; for k app cat: calculated from vmax.

Experiment [2] deals with human AspH. As to conditions: cited from earlier work; for AspH (%): substrate hydroxylation with the compound as cosubstrate: absence of 2OG, AspH 0.1 μM, 2OG derivative 330 μM, Fe(II) 50 μM, hFX-CP101–119 2.0 μM.
Experiment [3] has as its system human AspH. Also noted: method as in ref 9 (ESI). As to conditions: AspH 0.05 μM, hFX-CP101-119 1.0 μM, 2OG 3.0 μM; ref 9 (ESI); cited from earlier work.
In experiment [4] the test system is human FIH. As to conditions: absence of 2OG, FIH 0.15 μM, 2OG derivative 330 μM, Fe(II) 50 μM, HIF-1α788–822 5.0 μM, cited from earlier work.
For experiment [5], the target named is T1, human JMJD5. The experiment in a line: SPE-MS JMJD5 inhibition assay. In kind it is biochemical. As to conditions: JMJD5 0.15 μM, 2OG 2.0 μM, Fe(II) 2.0 μM, LAA 100 μM, RPS6_128–148 2.0 μM; read-out: IC50 JMJD5. The procedure:
Solutions of the small-molecules (100% DMSO) were dry dispensed across 384 well polypropylene V-bottom assay microplates (Greiner) in an approximately three-fold and 11-point dilution series (100 μM inhibitor top concentration; the final DMSO assay concentration was kept constant at 0.5%v/v) using an ECHO 550 acoustic dispenser (Labcyte). […] Each reaction was performed in technical duplicates in adjacent wells of the assay plates; additionally, assays were performed in two independent duplicates on different days using different inhibitor solutions.
The Enzyme Mixture (25 μL per well), containing 0.3 μM His6-thioredoxin-tagged JMJD5 in buffer (50 mM MOPS, pH 7.5), was dispensed across the inhibitor-containing 384-well plates with a multidrop dispenser (ThermoFischer Scientific) at 20 °C under an ambient atmosphere. The plates were subsequently centrifuged (1000 rpm, 5 s) and incubated for 15 min at 20 °C. […] The plates were centrifuged (1000 rpm, 5 s) and, after incubating for 30 min, the enzyme reaction was stopped by the addition of 10%v/v aqueous formic acid (5 μL per well). The plates were then centrifuged (1000 rpm, 30 s) and analyzed by MS.
Z′-Factors were calculated according to the cited literature using Microsoft Excel.[61]

Experiment [6] concerns the target T2, human KDM4E (Homo sapiens, UniProt B2RXH2).
T2 sequence (B2RXH2 1-506): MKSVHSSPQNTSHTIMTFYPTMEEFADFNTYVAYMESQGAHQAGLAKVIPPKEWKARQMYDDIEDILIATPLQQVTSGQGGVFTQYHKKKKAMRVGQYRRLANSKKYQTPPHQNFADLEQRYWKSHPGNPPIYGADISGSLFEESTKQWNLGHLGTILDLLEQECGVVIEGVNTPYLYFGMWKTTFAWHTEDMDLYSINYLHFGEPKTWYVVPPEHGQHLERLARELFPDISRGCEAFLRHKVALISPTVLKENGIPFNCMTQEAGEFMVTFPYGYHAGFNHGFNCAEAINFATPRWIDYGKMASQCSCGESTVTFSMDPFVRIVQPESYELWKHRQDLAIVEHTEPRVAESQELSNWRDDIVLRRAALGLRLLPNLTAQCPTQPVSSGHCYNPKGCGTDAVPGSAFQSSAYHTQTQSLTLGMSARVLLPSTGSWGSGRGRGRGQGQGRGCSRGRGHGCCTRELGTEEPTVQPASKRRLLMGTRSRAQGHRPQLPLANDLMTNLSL
The experiment in a line: KDM4E SPE-MS inhibition assay. The class given is biochemical. The note with it: KDM4E 0.15 μM, peptide 10.0 μM, LAA 100 μM, FAS 10 μM, 2OG 10 μM. The procedure:
KDM4E turnover and inhibition assays were performed as reported using recombinant human KDM4E and a histone 3 K9(me3) derivative (i.e. […](me3)STGGIA)[41] as substrate.[95] […]

In experiment [7] the test system is human FIH. Also noted: method as in ref 10 (ESI). The note with it: FIH 0.15 μM, HIF-1α788-822 5.0 μM, 2OG 10 μM; ref 10 (ESI); cited from earlier work.
Experiment [8] has as its target T2, human KDM4E. The experiment in a line: KDM4E SPE-MS turnover and kinetic assay (H3 K9(me3) peptide demethylation). The class given is biochemical. As to conditions: for KDM4E (%): substrate demethylation with the compound as cosubstrate: absence of 2OG, KDM4E 0.15 μM, 2OG derivative 330 μM, Fe(II) 50 μM, ARTAQTARK(me3)STGGIA 10.0 μM.
Another experiment deals with PHD2. Details: method as in PMID 18952043. The note with it: PHD2 1.0 nM, biotin-DLEMLAPYIPMDDDFQ substrate; cited from earlier work.
The mark [9] stands for this setting: AspH315–758 0.1 μM, hFX–CP101–119 substrate.

Where two headings read alike, the source gives them in different places. Ends that are not written are not given here.

As to “RPS6_129–144: truncated version of the RPS6_128–148 substrate peptide used in MALDI-TOF MS assays (VPRRLGPKRASRIRKL-NH2; UniProt P62753 129-144, looked up, fragment)”, in the experiment with JMJD5, the K m is about 60 µM.

As to `O=C(O)C(=O)c1ccc(C(=O)O)c(F)c1` [2OG derivative 29], the “JMJD5 (%): RPS6_128–148 hydroxylation with the compound as cosubstrate” value (“JMJD5 (%): RPS6_128–148 hydroxylation” below) at human JMJD5 [1] is on record as under 1%. The “AspH (%): substrate hydroxylation with the compound as cosubstrate” value (shortened to “AspH (%): substrate hydroxylation”) in the experiment with human AspH [2] is ~ 8%. The IC50 in the experiment on human AspH [3], at human JMJD5 [5], against human KDM4E [6] and in the experiment on human FIH [7] was over 50 µM in each case. Besides, the “FIH (%): substrate hydroxylation with the compound as cosubstrate” value (shortened to “FIH (%): substrate hydroxylation”) in the experiment on human FIH [4] is on record as under 1%. Moreover, on human KDM4E [8], the “KDM4E (%): substrate demethylation with the compound as cosubstrate” value (from here on “KDM4E (%): substrate demethylation”) is under 1%.

As to `O=C(O)C(=O)c1ccc(C(=O)O)cc1F` [2OG derivative 28], the “JMJD5 (%): RPS6_128–148 hydroxylation” value at human JMJD5 [1] was under 1%. In the experiment on human AspH [2], the “AspH (%): substrate hydroxylation” value was ~ 45%. Further, the IC50 in the experiment on human AspH [3], at human JMJD5 [5], against human KDM4E [6] and in the experiment on human FIH [7] was over 50 µM throughout. Moreover, the “FIH (%): substrate hydroxylation” value with human FIH [4] is given as under 1%. Besides, the “KDM4E (%): substrate demethylation” value at human KDM4E [8] was under 1%.

On to `O=C(O)C(=O)C1(C(=O)O)CC1` [2OG derivative 25], for which, at human JMJD5 [1], the “JMJD5 (%): RPS6_128–148 hydroxylation” value is on record as under 1%. Besides, the “AspH (%): substrate hydroxylation” value with human AspH [2] is listed as under 1%. Besides, the 50% inhibitory concentration (IC50) (commonly the midpoint of a concentration-inhibition curve) in the experiment with human AspH [3] is 3.3 ± 1 µM; at human JMJD5 [5], over 50 µM; against human KDM4E [6] it was over 50 µM; in the experiment on human FIH [7], over 50 µM. For the same compound, the “FIH (%): substrate hydroxylation” value in the experiment with human FIH [4] was under 1%. The “KDM4E (%): substrate demethylation” value at human KDM4E [8] is recorded as under 1%.

As to `O=C(O)C(=O)c1ccc(C(=O)O)c(Br)c1` [2OG derivative 31], the “JMJD5 (%): RPS6_128–148 hydroxylation” value on human JMJD5 [1] is listed as under 1%. For the same compound, in the experiment with human AspH [2], the “AspH (%): substrate hydroxylation” value is recorded as ~ 8%. Moreover, the IC50 in the experiment with human AspH [3], at human JMJD5 [5], at human KDM4E [6] and with human FIH [7] was over 50 µM in each case. In addition, the “FIH (%): substrate hydroxylation” value in the experiment on human FIH [4] is on record as under 1%. Also, the “KDM4E (%): substrate demethylation” value at human KDM4E [8] is recorded as under 1%.

Turning to `O=C(O)C(=O)c1ccc(C(=O)O)cc1Br` [2OG derivative 30], the “JMJD5 (%): RPS6_128–148 hydroxylation” value at human JMJD5 [1] is under 1%. Moreover, the “AspH (%): substrate hydroxylation” value in the experiment on human AspH [2] is listed as ~ 20%. Also, the IC50 with human AspH [3], on human JMJD5 [5], against human KDM4E [6] and in the experiment on human FIH [7] was over 50 µM in each case. For the same compound, the “FIH (%): substrate hydroxylation” value in the experiment on human FIH [4] was under 1%. In addition, the “KDM4E (%): substrate demethylation” value at human KDM4E [8] is listed as under 1%.

In the case of `CC(CC(=O)O)C(=O)C(=O)O` (stereo not drawn) [2OG derivative 1, 3-methyl-2OG], at human JMJD5 [1] (listed as Entry 2), the “JMJD5 (%): RPS6_128–148 hydroxylation” value is ~ 10%. For the same compound, on human JMJD5 [1] (after 50 min, 10 μM cosubstrate, 0.15 μM JMJD5, 10 μM Fe(II), 2.0 μM RPS6_128–148), the “JMJD5-catalyzed RPS6_128–148 hydroxylation, time course” value is about 20%. Besides, the “AspH (%): substrate hydroxylation” value in the experiment on human AspH [2] (listed as Entry 2) is recorded as over 95%. The concentration for half-maximal inhibition (IC50) with human AspH [3] is over 50 µM; on human JMJD5 [5], over 50 µM; against human KDM4E [6], over 30 µM; with human FIH [7], over 50 µM. In addition, the “FIH (%): substrate hydroxylation” value with human FIH [4] (listed as Entry 2) is ~ 55%. Moreover, the “fold less efficient KDM4E cosubstrate than 2OG” value on human KDM4E [8] is on record as about 7 fold. The “KDM4E (%): substrate demethylation” value at human KDM4E [8] (listed as Entry 2) is given as ~ 10%.

Turning to `O=C(O)CNC(=O)c1ncc(-c2cccc(Cl)c2)cc1O` [vadadustat], the 50% inhibitory concentration (IC50) in the experiment on JMJD5 (read-out: IC50 JMJD5 (MALDI-TOF MS assay)) is about 54 µM.

On to `CC(C)(CC(=O)C(=O)O)C(=O)O` [2OG derivative 9, 4,4-dimethyl-2OG], for which, in the experiment with human AspH [2] (listed as Entry 13), the “AspH (%): substrate hydroxylation” value is under 1%. The IC50 in the experiment with human AspH [3] was about 0.3 µM; against human KDM4E [6] it was over 30 µM; in the experiment with human FIH [7] it was over 50 µM. In addition, the “FIH (%): substrate hydroxylation” value with human FIH [4] (listed as Entry 13) is listed as under 5%. The “KDM4E (%): substrate demethylation” value at human KDM4E [8] (listed as Entry 13) is under 1%.

For the compound `Cc1cc(C(=O)O)ccc1C(=O)C(=O)O` [2OG derivative 32], the “JMJD5 (%): RPS6_128–148 hydroxylation” value on human JMJD5 [1] is recorded as under 1%. Moreover, the “AspH (%): substrate hydroxylation” value in the experiment on human AspH [2] is ~ 5%. The IC50 in the experiment on human AspH [3], on human JMJD5 [5], against human KDM4E [6] and with human FIH [7] was over 50 µM throughout. The “FIH (%): substrate hydroxylation” value in the experiment on human FIH [4] is recorded as under 1%. Further, the “KDM4E (%): substrate demethylation” value on human KDM4E [8] is under 1%.

Regarding “ammonium iron(II) sulfate hexahydrate [Fe(II)]”, the v app max on human JMJD5 [1] (0.15 μM JMJD5, 50 mM MOPS pH 7.5, 20 °C, 100 μM LAA present) was found to be 0.75 ± 0.03 nM/s; at human JMJD5 [1] (0.15 μM JMJD5, absence of LAA), 0.73 ± 0.05 nM/s. Also, the k app cat is 0.005 ± 0.0002 s⁻¹ on human JMJD5 [1] (0.15 μM JMJD5, 50 mM MOPS pH 7.5, 20 °C, LAA present) and 0.0049 ± 0.0004 s⁻¹ at human JMJD5 [1] (0.15 μM JMJD5, absence of LAA). On human JMJD5 [1] (0.15 μM JMJD5, absence of LAA), the K app m stood at 0.46 ± 0.11 µM. The K m in the experiment with human AspH [2] (setting [9]) was 1.42 ± 0.16 µM; with JMJD5, about 2.7 µM; in the experiment on PHD2 it was 0.89 ± 0.07 µM. Moreover, the k cat in the experiment on human AspH [2] (setting [9]) was 0.19 ± 0.03 s⁻¹.
